Values quoted from earlier work, collected in patent US5574025A, “Inhibitors of prenyl-protein transferases” (Merck & Co., Inc., priority 1994, dated 1996).

System: Ras
Settings: Hancock et al., Casey et al., Schafer et al.

| Compound | Inhibition of Ras famesylation in vivo |
| --- | --- |
| CC[C@H](C)C(=O)O[C@H]1C[C@@H](C)C=C2C=C[C@H](C)[C@H](CC[C@@H]3C[C@@H](O)CC(=O)O3)[C@H]21 [Lovastatin] | Inhibition of Ras famesylation in vivo has been demonstrated |
| CC[C@H](C)C(=O)O[C@H]1CCC=C2C=C[C@H](C)[C@H](CC[C@@H]3C[C@@H](O)CC(=O)O3)[C@H]21 [compactin] | Inhibition of Ras famesylation in vivo has been demonstrated |
